Source: patent US12492173B2, “Herbicidal substituted N-tetrazolyl aryl carboxamides” (Bayer Aktiengesellschaft, priority 2019, dated 2025)

Experiments:
Type in all cases: in vivo
Cyperus esculentus = assay: Pre-emergence herbicidal action, CYPES; design: key: % activity: 100 = plants have died, 0 = like control plants; details: comparative experiment
Outline: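 Pre-emergence soil spray over sandy loam-covered seeds; greenhouse 3 weeks; % visual damage (0% = control, 100% = dead).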

Lolium multiflorum = assay: Post-emergence herbicidal action, LOLMU; design: key: % herbicidal action: 100 = plants died, 0 = like control; details: for Herbicidal action against LOLMU: comparative experiment
Procedure: (§1) [table] 2. Post-Emergence Herbicidal Action Against Harmful Plants Seeds of monocotyledonous and dicotyledonous weed and crop plants are laid out in sandy loam soil in wood-fiber pots, covered with soil and cultivated in a greenhouse under good growth conditions. 2 to 3 weeks after sowing, the test plants are treated at the one-leaf stage. The compounds of the invention, formulated in the form of wettable powders (WP) or as emulsion concentrates (EC), are then sprayed onto the green parts of the plants in the form of an aqueous suspension or emulsion at a water application rate equating to 600 to 800 l/ha, with addition of 0.2% wetting agent. After the test plants have been left to stand in the greenhouse under optimal growth conditions for about 3 weeks, the action of the preparations is assessed visually in comparison to untreated controls (herbicidal action in percent (%): 100% activity=the plants have died, 0% activity=like control plants). […] The tables below illustrate, in an exemplary manner, the post-emergence herbicidal action of the compounds according to the invention, the herbicidal activity being stated in percent. In the experiments that follow, herbicidal action of numerous inventive compounds and the known compounds that are structurally closest from D1 (WO 2012/028579 A1) and D2 (WO 2018/202535 A1) were compared under the above-specified conditions by the pre-emergence and post-emergence method. The example numbers given in the tables relate to the compounds disclosed in the respective documents. In addition to the compounds disclosed in D1 and D2, the following compounds V-1 to V-14 that are encompassed by D1 or D2 but are not compounds specified therein were used in the comparative experiments: • V-1: 2-(methylsulfanyl)-3-(methylsulfinyl)-N-(1-methyl-1H-tetrazol-5-yl)-4-(trifluoromethyl)benzamide • V-2: 2-(methylsulfanyl)-3-(methylsulfonyl)-N-(1-methyl-1H-tetrazol-5-yl)-4-(trifluoromethyl)benzamide • V-3: 2,3-bis(ethylsulfanyl)-N-(1-methyl-1H-tetrazol-5-yl)-4-(trifluoromethyl)benzamide • V-4: 2-chloro-3-(ethylsulfanyl)-N-(1-methyl-1H-tetrazol-5-yl)-4-(trifluoromethyl)benzamide • V-5: 2-chloro-4-iodo-3-(methylsulfanyl)-N-(1-methyl-1H-tetrazol-5-yl)benzamide • V-6: 2-chloro-4-iodo-3-(methylsulfinyl)-N-(1-methyl-1H-tetrazol-5-yl)benzamide • V-7: 2-chloro-4-iodo-3-(methylsulfonyl)-N-(1-methyl-1H-tetrazol-5-yl)benzamide • V-8: 2-bromo-3-(methylsulfanyl)-N-(1-methyl-1H-tetrazol-5-yl)-4-(trifluoromethyl)benzamide • V-9: 2-bromo-3-(methylsulfinyl)-N-(1-methyl-1H-tetrazol-5-yl)-4-(trifluoromethyl)benzamide • V-10: 2-bromo-3-(methylsulfonyl)-N-(1-methyl-1H-tetrazol-5-yl)-4-(trifluoromethyl)benzamide • V-11: 2-bromo-3-(ethylsulfanyl)-N-(1-methyl-1H-tetrazol-5-yl)-4-(trifluoromethyl)benzamide • V-12: 2-bromo-3-(ethylsulfinyl)-N-(1-methyl-1H-tetrazol-5-yl)-4-(trifluoromethyl)benzamide • V-13: 2-bromo-3-(ethylsulfonyl)-N-(1-methyl-1-1H-tetrazol-5-yl)-4-(trifluoromethyl)benzamide • V-14: 2-cyclopropyl-3-(ethylsulfanyl)-N-(1-methyl-1H-tetrazol-5-yl)-4-(trifluoromethyl)benzamide Herbicidal Pre-Emergence Action: […]

Digitaria sanguinalis [1] = assay: Pre-emergence herbicidal action, DIGSA; details: dosage 320 g/ha, scored visually after 3 weeks vs untreated controls (100% = plants have died)
Text: (§2) 1. Pre-Emergence Herbicidal Action Against Harmful Plants Seeds of monocotyledonous and dicotyledonous weed plants and crop plants are laid out in sandy loam soil in wood-fiber pots and covered with soil. The compounds of the invention, formulated in the form of wettable powders (WP) or as emulsion concentrates (EC), are then applied to the surface of the covering soil in the form of an aqueous suspension or emulsion at a water application rate equating to 600 to 800 l/ha, with addition of 0.2% wetting agent. After the treatment, the pots are placed in a greenhouse and kept under good growth conditions for the trial plants. The damage to the test plants is scored visually after a test period of 3 weeks by comparison with untreated controls (herbicidal activity in percent (%): 100% activity=the plants have died, 0% activity=like control plants). […] The tables below illustrate, in an exemplary manner, the […] herbicidal action of the compounds according to the invention, the herbicidal activity being stated in percent. [table] In the experiments that follow, herbicidal action of numerous inventive compounds and the known compounds that are structurally closest from D1 (WO 2012/028579 A1) and D2 (WO 2018/202535 A1) were compared under the above-specified conditions by the pre-emergence and post-emergence method. The example numbers given in the tables relate to the compounds disclosed in the respective documents. In addition to the compounds disclosed in D1 and D2, the following compounds V-1 to V-14 that are encompassed by D1 or D2 but are not compounds specified therein were used in the comparative experiments: • V-1: 2-(methylsulfanyl)-3-(methylsulfinyl)-N-(1-methyl-1H-tetrazol-5-yl)-4-(trifluoromethyl)benzamide • V-2: 2-(methylsulfanyl)-3-(methylsulfonyl)-N-(1-methyl-1H-tetrazol-5-yl)-4-(trifluoromethyl)benzamide • V-3: 2,3-bis(ethylsulfanyl)-N-(1-methyl-1H-tetrazol-5-yl)-4-(trifluoromethyl)benzamide • V-4: 2-chloro-3-(ethylsulfanyl)-N-(1-methyl-1H-tetrazol-5-yl)-4-(trifluoromethyl)benzamide • V-5: 2-chloro-4-iodo-3-(methylsulfanyl)-N-(1-methyl-1H-tetrazol-5-yl)benzamide • V-6: 2-chloro-4-iodo-3-(methylsulfinyl)-N-(1-methyl-1H-tetrazol-5-yl)benzamide • V-7: 2-chloro-4-iodo-3-(methylsulfonyl)-N-(1-methyl-1H-tetrazol-5-yl)benzamide • V-8: 2-bromo-3-(methylsulfanyl)-N-(1-methyl-1H-tetrazol-5-yl)-4-(trifluoromethyl)benzamide • V-9: 2-bromo-3-(methylsulfinyl)-N-(1-methyl-1H-tetrazol-5-yl)-4-(trifluoromethyl)benzamide • V-10: 2-bromo-3-(methylsulfonyl)-N-(1-methyl-1H-tetrazol-5-yl)-4-(trifluoromethyl)benzamide • V-11: 2-bromo-3-(ethylsulfanyl)-N-(1-methyl-1H-tetrazol-5-yl)-4-(trifluoromethyl)benzamide • V-12: 2-bromo-3-(ethylsulfinyl)-N-(1-methyl-1H-tetrazol-5-yl)-4-(trifluoromethyl)benzamide • V-13: 2-bromo-3-(ethylsulfonyl)-N-(1-methyl-1-1H-tetrazol-5-yl)-4-(trifluoromethyl)benzamide • V-14: 2-cyclopropyl-3-(ethylsulfanyl)-N-(1-methyl-1H-tetrazol-5-yl)-4-(trifluoromethyl)benzamide Herbicidal Pre-Emergence Action: […]

Digitaria sanguinalis [2] = assay: Post-emergence herbicidal action, DIGSA; design: key: % herbicidal action: 100 = plants died, 0 = like control; details: Dosage 80 g/ha
Procedure: as §1

Lolium rigidum = assay: Pre-emergence herbicidal action, LOLRI; details: dosage 320 g/ha, scored visually after 3 weeks vs untreated controls (100% = plants have died)
Text: as §2

Hordeum murinum = assay: Post-emergence herbicidal action, HORMU; design: key: % herbicidal action: 100 = plants died, 0 = like control
Procedure: as §1

[3] = post-emergence, 20 g of a.i./ha

CC[S+]([O-])Cc1c(C(F)(F)F)ccc(C(=O)Nc2nnnn2C)c1Br (racemic) [Example 1-384]
Herbicidal action against CYPES (Cyperus esculentus; 80 g of a.i./ha): 100 | herbicidal action LOLMU (Lolium multiflorum; post-emergence, dosage 80 g/ha): 90%

CSCc1c(C(F)(F)F)ccc(C(=O)Nc2nnnn2C)c1C [Example 1-83]
herbicidal action LOLMU (Lolium multiflorum; post-emergence, dosage 80 g/ha): 80%

CSc1c(C(=O)Nc2nnnn2C)ccc(C(F)F)c1C[S+](C)[O-] (stereo not shown) [Example 1-171]
herbicidal activity DIGSA (Digitaria sanguinalis [1]): 100% | herbicidal action DIGSA (Digitaria sanguinalis [2]): 100

CCSCc1c(C(F)(F)F)ccc(C(=O)Nc2nnnn2C)c1Cl [Example 1-299]
Herbicidal action against CYPES (Cyperus esculentus; 20 g of a.i./ha): 90 | Herbicidal action against LOLMU (Lolium multiflorum; post-emergence, 5 g of a.i./ha): 70 | herbicidal action LOLMU (Lolium multiflorum; post-emergence, dosage 80 g/ha): 90%

Cn1nnnc1NC(=O)c1ccc(C(F)(F)F)c(CSCC(F)(F)F)c1Cl [Example 1-311]
herbicidal activity LOLRI (Lolium rigidum): 100% | herbicidal action HORMU (Hordeum murinum; Dosage 80 g/ha): 100

CSCc1c(C(F)F)ccc(C(=O)Nc2nnnn2C)c1Cl [Example 1-320]
Herbicidal action against CYPES (Cyperus esculentus; 20 g of a.i./ha): 80 | herbicidal action LOLMU (Lolium multiflorum; Dosage 80 g/ha): 80

Cn1nnnc1NC(=O)c1ccc(C(F)F)c(CS(C)(=O)=O)c1Cl [Example 1-322]
herbicidal action LOLMU (Lolium multiflorum; post-emergence, dosage 80 g/ha): 90%

CCSCc1c(C(F)F)ccc(C(=O)Nc2nnnn2C)c1Cl [Example 1-323]
herbicidal action LOLMU (Lolium multiflorum; post-emergence, dosage 80 g/ha): 90%

CCS(=O)(=O)Cc1c(C(F)F)ccc(C(=O)Nc2nnnn2C)c1Cl [Example 1-325]
herbicidal action LOLMU (Lolium multiflorum; Dosage 80 g/ha): 90

CCSCc1c(C(F)(F)F)ccc(C(=O)Nc2nnnn2C)c1Br [Example 1-383]
Herbicidal action against CYPES (Cyperus esculentus; 80 g of a.i./ha): 100 | herbicidal action LOLMU (Lolium multiflorum; post-emergence, dosage 80 g/ha): 90%

CCS(=O)(=O)Cc1c(C(F)(F)F)ccc(C(=O)Nc2nnnn2C)c1Br [Example 1-385]
Herbicidal action against LOLMU (Lolium multiflorum; [3]): 50 | herbicidal action LOLMU (Lolium multiflorum; post-emergence, dosage 80 g/ha): 80%

Cn1nnnc1NC(=O)c1ccc(C(F)(F)F)c(CS(C)(=O)=O)c1C(F)(F)C(F)(F)F [Example 1-552]
herbicidal activity DIGSA (Digitaria sanguinalis [1]): 100% | herbicidal action DIGSA (Digitaria sanguinalis [2]): 90

CSCc1c(Cl)ccc(C(=O)Nc2nnnn2C)c1Cl [Example 1-559]
herbicidal action LOLMU (Lolium multiflorum; post-emergence, dosage 80 g/ha): 100%

CCSCc1c(C(F)(F)F)ccc(C(=O)Nc2nnnn2CC)c1C [Example 2-86]
herbicidal action LOLMU (Lolium multiflorum; post-emergence, dosage 80 g/ha): 90%

CCn1nnnc1NC(=O)c1ccc(C(F)F)c(CSC)c1SC [Example 2-170]
herbicidal activity DIGSA (Digitaria sanguinalis [1]): 100% | herbicidal action DIGSA (Digitaria sanguinalis [2]): 100

CCn1nnnc1NC(=O)c1ccc(C(F)F)c(C[S+](C)[O-])c1SC (stereo not shown) [Example 2-171]
herbicidal activity DIGSA (Digitaria sanguinalis [1]): 100% | herbicidal action DIGSA (Digitaria sanguinalis [2]): 90

CCn1nnnc1NC(=O)c1ccc(C(F)(F)F)c(CSC)c1Cl [Example 2-296]
herbicidal action LOLMU (Lolium multiflorum; post-emergence, dosage 80 g/ha): 90%

CCn1nnnc1NC(=O)c1ccc(C(F)(F)F)c(C[S+](C)[O-])c1Cl (stereo not shown) [Example 2-297]
herbicidal action LOLMU (Lolium multiflorum; post-emergence, dosage 80 g/ha): 90%

CCSCc1c(C(F)(F)F)ccc(C(=O)Nc2nnnn2CC)c1Cl [Example 2-299]
herbicidal action LOLMU (Lolium multiflorum; post-emergence, dosage 80 g/ha): 90%

CCn1nnnc1NC(=O)c1ccc(C(F)(F)F)c(CSCC(F)(F)F)c1Cl [Example 2-311]
herbicidal activity LOLRI (Lolium rigidum): 90% | herbicidal action HORMU (Hordeum murinum; Dosage 80 g/ha): 80

CCn1nnnc1NC(=O)c1ccc(C(F)F)c(CSC)c1Cl [Example 2-320]
herbicidal action LOLMU (Lolium multiflorum; Dosage 80 g/ha): 80

CCn1nnnc1NC(=O)c1ccc(C(F)F)c(CS(C)(=O)=O)c1Cl [Example 2-322]
herbicidal action LOLMU (Lolium multiflorum; post-emergence, dosage 80 g/ha): 80%

CCSCc1c(C(F)F)ccc(C(=O)Nc2nnnn2CC)c1Cl [Example 2-323]
herbicidal action LOLMU (Lolium multiflorum; post-emergence, dosage 80 g/ha): 80%

CCn1nnnc1NC(=O)c1ccc(I)c(C[S+](C)[O-])c1Cl (stereo not shown) [Example 2-363]
herbicidal activity LOLRI (Lolium rigidum): 100% | herbicidal action HORMU (Hordeum murinum; Dosage 80 g/ha): 90

CCn1nnnc1NC(=O)c1ccc(C(F)(F)F)c(C[S+]([O-])CC)c1Br (stereo not shown) [Example 2-384]
herbicidal action LOLMU (Lolium multiflorum; post-emergence, dosage 80 g/ha): 80%

CCCn1nnnc1NC(=O)c1ccc(C(F)(F)F)c(CS(C)(=O)=O)c1SC [Example 3-163]
herbicidal action HORMU (Hordeum murinum; Dosage 80 g/ha): 80

C=CCSCc1c(C(F)(F)F)ccc(C(=O)Nc2nnnn2CCC)c1Cl [Example 3-308]
herbicidal activity LOLRI (Lolium rigidum): 80%

CCCn1nnnc1NC(=O)c1ccc(C(F)(F)F)c(CSCC(F)(F)F)c1Cl [Example 3-311]
herbicidal action HORMU (Hordeum murinum; Dosage 80 g/ha): 90

CCCn1nnnc1NC(=O)c1ccc(C(F)(F)F)c(CSCC2CC2)c1Cl [Example 3-314]
herbicidal activity LOLRI (Lolium rigidum): 90% | herbicidal action HORMU (Hordeum murinum; post-emergence, dosage 80 g/ha): 90%

CCCn1nnnc1NC(=O)c1ccc(C(F)F)c(CS(=O)(=O)CC)c1Cl [Example 3-325]
herbicidal activity LOLRI (Lolium rigidum): 100% | herbicidal action HORMU (Hordeum murinum; Dosage 80 g/ha): 90

CCS(=O)(=O)c1c(C(F)(F)F)ccc(C(=O)Nc2nnnn2C)c1Br [Example V-13, 2-bromo-3-(ethylsulfonyl)-N-(1-methyl-1-1H-tetrazol-5-yl)-4-(trifluoromethyl)benzamide, reference compound]
Herbicidal action against LOLMU (Lolium multiflorum; [3]): 0
